Results on 1 molecule are retold here after patent US4923969A, “Preparation of 99m Tc radiopharmaceuticals” (The Commonwealth of Australia, priority 1983, dated 1990).

This series is described as follows: Stability of dried 99mTcNCl4- preparation. Format: physicochemical. Here is the method:
Samples of the ^99m TcNCl4^- preparation were taken to dryness in a rotary evaporator and stored for 24 hours (a) in air at room temperature, (b) at 80° C., and (c) at room temperature and 100% humidity. They were then used to prepare ^99m TcN-DTPA by addition of ligand as before.

With `[N]#[99Tc-]([Cl])([Cl])([Cl])[Cl].[Na+]` [^99m TcNCl4^-, sodium tetrachloronitridotechnetate], the “chromatographic behaviour (HPLC) after storage of the dry reagent” value (24 hours in air at room temperature, at 80° C., or at room temperature and 100% humidity, tested as 99mTcN-DTPA) is given as “No significant difference in chromatographic behaviour”. Besides, the “stability of the dry preparation for distribution” value (dry preparation) is “sufficiently stable to be prepared in a central laboratory or manufacturing site and distributed to users”. Under “dry, air at room temperature, 80° C., or room temperature and 100% humidity”, the “storage time for which the dry reagent was stable ("stable for up to")” value is at least 24 h.
